In patent publication EP4817611A1, “PHARMACEUTICAL COMPOSITION” (EA Pharma Co., Ltd., priority 2023, dated 2025):

How the values were obtained:
[1] = One-month stability test in sealed glass vial under three storage conditions; decomposition product 1 by HPLC; assay type: physicochemical; settings: Compound (2) HCl 62.5 mg + acidic substance 62.5 mg
Protocol: When the hydrochloride of the compound represented by the formula (2) (hereinafter referred to as "Compound (2) HCl") is decomposed, the following decomposition products 1 and 2 are produced. [drawing 9]
The amount of the decomposition product 1 produced was measured over time by HPLC to evaluate the stability of the pharmaceutical composition. The HPLC analysis conditions are as follows. When airtight conditions were employed in the stability test, aluminum packaging was used.
• Detector: UV absorption photometer (measurement wavelength: 256 nm) • Column: InertSustain AQ-C18 HP 3 µm, 3.0 × 150 mm (reverse-phase C18 column) • Column temperature: a constant temperature around 25°C • Mobile phase A: 50 mmol/L ammonium formate buffer solution (pH: 4) • Mobile phase B: 50 mmol/L ammonium formate buffer solution (pH: 4) : acetonitrile = 1:4 • Flow rate: 1.0 ml/min
• Time: 0 → 20 • Mobile phase A (%): 95 → 0 • Mobile phase B (%): 5 → 100
The formulation in Table 5-1 (the types of acidic substances are listed in Table 5-2) was mixed in a mortar to prepare a pharmaceutical composition, which was then sealed in a glass vial, and a one-month stability test was performed under three storage conditions (airtight conditions at 4°C, airtight conditions at 60°C, and open conditions at 60°C). As a reference example, a stability test was also performed on the active ingredient alone (without an acidic substance).

[2] = recorded in the Chemical Book; cited from earlier work

| Compound | Content of decomposition product 1 (%) (4°C, airtight) ([1]; 4°C, airtight, glass vial) | Content of decomposition product 1 (%) (60°C, airtight) ([1]; 60°C, airtight, glass vial) | Content of decomposition product 1 (%) (60°C, open, 75% RH) ([1]; 60°C, open, 75% RH) | pKa [2] |
| --- | --- | --- | --- | --- |
| CC(C)(Cc1ccc(C(=O)Oc2ccc(C(=N)N)cc2F)s1)C(=O)O [Reference example] | 0.03 | 0.05 | 0.10 | – |
| N[C@@H](CC(=O)O)C(=O)O [aspartic acid] | – | – | – | 1.99 |
